Each structure is given as a SMILES string.

For experiment [1], the target named is Programmed cell death protein 1/Programmed cell death 1 ligand 1 (Homo sapiens, UniProt Q15116+Q9NZQ7). Nature of the experiment: Inhibition of PD-1/PDL1 (unknown origin) by ELISA. It counts as protein-complex assay.
The target in experiment [2] is Programmed cell death 1 ligand 1 (Homo sapiens) (UniProt Q9NZQ7).
Description: Binding affinity to human PDL1 (18 to 134 residues) expressed in Escherichia coli BL21 (DE3) cells assessed as melting temperature by differential scanning fluorimetry (Rvb = 35.4 degreec)
Another experiment relates to Jurkat. Description: Cytotoxicity against human Jurkat T cells assessed as reduction in cell viability. The format is cell-based.

Chain of Programmed cell death protein 1/Programmed cell death 1 ligand 1 (Q15116 whole entry): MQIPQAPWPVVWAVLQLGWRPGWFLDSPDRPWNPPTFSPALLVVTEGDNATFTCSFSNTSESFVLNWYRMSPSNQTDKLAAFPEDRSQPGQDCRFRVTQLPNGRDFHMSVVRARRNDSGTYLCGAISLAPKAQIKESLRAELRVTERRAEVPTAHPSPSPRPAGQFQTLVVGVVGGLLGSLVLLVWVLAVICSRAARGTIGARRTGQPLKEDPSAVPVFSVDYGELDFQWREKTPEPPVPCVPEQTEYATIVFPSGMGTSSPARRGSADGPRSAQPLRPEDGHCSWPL
Chain of Programmed cell death protein 1/Programmed cell death 1 ligand 1 (Q9NZQ7 whole entry): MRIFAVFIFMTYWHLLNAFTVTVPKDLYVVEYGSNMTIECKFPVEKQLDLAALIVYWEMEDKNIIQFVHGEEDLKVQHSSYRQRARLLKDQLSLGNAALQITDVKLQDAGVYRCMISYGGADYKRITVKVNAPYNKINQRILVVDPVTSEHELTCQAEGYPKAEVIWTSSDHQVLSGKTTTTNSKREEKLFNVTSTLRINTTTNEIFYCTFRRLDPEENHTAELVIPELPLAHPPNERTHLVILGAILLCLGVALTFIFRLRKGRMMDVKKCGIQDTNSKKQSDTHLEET
Chain of Programmed cell death 1 ligand 1 (Homo sapiens) (Q9NZQ7 whole entry): as above

`Cc1cc(C(=O)Nc2cccc(-c3ccccc3)c2C)ncc1CN1CCCC[C@H]1C(=O)O` came in with an IC50 in experiment [1] of at most 10 nM. The same measure, in the same setting: with `Cc1c(Nc2nccc3c(CN4CCCCC4C(=O)O)ccnc23)cccc1-c1ccccc1` (stereo not given) the figure was at most 10 nM. Still for that read-out and setting: with `Cc1c(Nc2nccc3ccc(CNCCO)nc23)cccc1-c1ccccc1` the figure was at most 10 nM; with `Cc1c(-c2ccccc2)cccc1-c1nc2cc(CN3CCCC[C@H]3C(=O)O)cc(C)c2o1`, at most 10 nM. The same measure, in the same setting: in the case of `Cc1c(-c2ccccc2)cccc1-c1nc2cc(CNCCO)ccc2o1` it was at most 10 nM; in that of `Cc1cc(C(=O)Nc2cccc(-c3ccccc3)c2C)ncc1CNCCO`, at most 10 nM. In the case of `Cc1c(COc2ccc(CN3CCCC[C@H]3C(=O)O)cc2Br)cccc1-c1cccc(COc2ccc(CN3CCCC[C@H]3C(=O)O)cc2Br)c1C`, the IC50 in experiment [1] was at most 10 nM. On to `COc1nc(OCc2cccc(-c3ccccc3)c2C)ccc1CNCCNC(C)=O`, for which the Tm in experiment [2] turned out to be 48.4 °C. Regarding `Cc1cc(CN[C@H](CO)C(=O)O)c(OCc2cccc(C#N)c2)cc1OCc1cccc(-c2ccc3c(c2)OCCO3)c1C`, the IC50 in the experiment on Jurkat is below 100 nM. In experiment [1], `Cc1cc(CNCCO)ccc1OCc1cccc(-c2cccc(COc3ccc(CNCCO)cc3C)c2C)c1C` returned an IC50 of at most 10 nM.
